# Measured values taken from ChEMBL document CHEMBL1201862, “PubChem BioAssay data set” (2004).
# Active and inactive are the calls of the source.
# Tests used:
# [1] = target: Perilipin-1/ABHD5 (Homo sapiens, UniProt O60240+Q8WTS1); assay: Luminescence-based biochemical high throughput dose response assay for inhibitors of the interaction of the lipase co-activator protein, abhydrolase domain containing 5 (ABHD5) with perilipin-1 (PLIN1) (2K validation set). [Related pubchem assays (depositor defined):AID493027, AID493057]
# [2] = target: 1-acylglycerol-3-phosphate O-acyltransferase ABHD5/Perilipin-5 (Homo sapiens, UniProt Q00G26+Q8WTS1); assay: Luminescence-based biochemical high throughput dose response assay for inhibitors of the interaction of the lipase co-activator protein, abhydrolase domain containing 5 (ABHD5) with perilipin-5 (MLDP; PLIN5) (2K validation set). [Related pubchem assays (depositor defined):AID493035, AID493241]
# [3] = Luminescence Cell Based Dose Confirmation HTS to Identify Activators of 5'UTR Stem-Loop Driven Alpha-Synuclein mRNA Translation in H4 Neuroglioblastoma Cells. [Related pubchem assays (depositor defined):AID1813, AID1829]; type: functional; details: Homo sapiens
# [4] = Luminescence Cell-Based Dose Retest to Confirm Inhibitors of Cancer Stem Cells. [Related pubchem assays (depositor defined):AID2717, AID2721]; type: functional; details: Homo sapiens
# [5] = target: T1, SUMO-activating enzyme (Homo sapiens, UniProt Q9UBT2); assay: inhibitors of in vitro SUMOylation cascade, primary screen, biochemical, HTRF, uHTS (AID 2006); type: protein-complex assay
# [6] = target: T1, SUMO-activating enzyme; assay: SUMOylation inhibitor hit validation, confirmation, SUMOylation inhibitor project, biochemical, AlphaScreen (AID 2018); type: functional
# [7] = growth suppression of beta-catenin-knockout colon cells, dose response, cell-based, HCT116, human colon tumor (AID 1045); type: functional;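 also: HCT116 colon tumor cells with beta catenin knocked out; cells exposed to compound for 60 hours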
# [8] = target: Integrin alpha-4 (Homo sapiens, UniProt P13612); assay: VLA-4 integrin allosteric ligands, SAR follow-up, cell-based, LIBS antibody binding, flow cytometry (AID 488791); type: functional
# [9] = cytotoxicity toward NIH3T3 fibroblasts, dose response, counter-screen, cell-based, ATP luminescence, mouse fibroblasts (AID 2010); type: functional;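 also: cells exposed to compound for about 90 hours before reading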
# [10] = inhibitors of intracellular T. cruzi replication, confirmation, NIH3T3 host cells, beta-gal luminescence (AID 2044); type: functional, cell-based;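 also: intracellular parasites grown in NIH/3T3 mouse fibroblasts as host cells; luminescent beta-galactosidase reporter signal from transgenic T. cruzi replicating inside host cells; inhibitors lower the luminescence signal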
# [11] = target: Protein-tyrosine kinase 2-beta (Homo sapiens, UniProt Q14289);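 also: potency of inhibitors of PYK2 kinase phosphorylation of poly-GT substrate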
# [12] = target: T2, Tyrosine-protein phosphatase non-receptor type 7 (Homo sapiens, UniProt P35236); assay: redox-dependent HePTP inhibition, mechanism study, biochemical, fluorescence (AID 2068); type: functional
# T2 sequence (P35236 whole entry): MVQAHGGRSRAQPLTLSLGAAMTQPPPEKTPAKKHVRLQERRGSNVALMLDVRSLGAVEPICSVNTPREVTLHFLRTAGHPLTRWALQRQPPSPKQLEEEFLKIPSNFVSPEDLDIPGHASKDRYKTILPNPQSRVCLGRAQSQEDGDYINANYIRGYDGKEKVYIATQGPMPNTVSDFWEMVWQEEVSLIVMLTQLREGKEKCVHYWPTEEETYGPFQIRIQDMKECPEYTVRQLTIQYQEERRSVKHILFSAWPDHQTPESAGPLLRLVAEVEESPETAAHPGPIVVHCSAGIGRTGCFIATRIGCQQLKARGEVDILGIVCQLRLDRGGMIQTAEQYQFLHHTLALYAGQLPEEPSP
# [13] = target: T3, Dual specificity protein phosphatase 6 (Rattus norvegicus, UniProt Q64346); type: functional;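 also: confirmatory in vitro dose-response testing of MKP-3 inhibition; recombinant His-tagged MKP-3 made in E. coli BL21 with OMFP substrate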
# T3 sequence (Q64346 whole entry): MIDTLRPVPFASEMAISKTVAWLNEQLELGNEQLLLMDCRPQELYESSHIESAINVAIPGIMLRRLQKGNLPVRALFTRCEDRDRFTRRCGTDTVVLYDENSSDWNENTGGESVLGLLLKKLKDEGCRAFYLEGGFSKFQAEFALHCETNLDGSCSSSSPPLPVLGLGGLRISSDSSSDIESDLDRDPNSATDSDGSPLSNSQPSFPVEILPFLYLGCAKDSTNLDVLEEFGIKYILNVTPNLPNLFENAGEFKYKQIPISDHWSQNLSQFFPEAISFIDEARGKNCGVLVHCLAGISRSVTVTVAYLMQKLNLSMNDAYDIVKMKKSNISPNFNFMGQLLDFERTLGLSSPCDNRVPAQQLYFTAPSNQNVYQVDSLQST
# [14] = target: Dual specificity protein phosphatase 3 (Homo sapiens, UniProt P51452); assay: SAR VHR1 Fluorescent Assay for In Vitro dose response studies Set 2. [Related pubchem assays (depositor defined):AID1654, AID1661, AID1878]; type: functional
# [15] = cytotoxicity in HEK-293T cells, dose response, cytotoxicity control for BCR NF-kB inhibitor project, luminescence, B-cell screen hits (AID 489021); type: functional, cell-based;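 also: HEK-293T cells carrying an NF-kB luciferase reporter; cells exposed to compound for about 14 hours before viability readout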
# [16] = target: Delta-type opioid receptor (Homo sapiens, UniProt P41143); assay: SAR Analysis of Antagonists of the DOR Receptor using an Image-Based Assay - Set 3. [Related pubchem assays (depositor defined):AID1777, AID1785]; type: functional;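 also: U2OS cells expressing DOR1 and beta-arrestin GFP stimulated with 100 nM SNC80; imaging of GFP-tagged beta-arrestin moving into spots after receptor activation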
# [17] = target: T4, Kappa-type opioid receptor (Homo sapiens, UniProt P41145); assay: SAR analysis of small molecule antagonists of the kappa opioid receptor via a luminescent beta-arrestin assay - Set 3. [Related pubchem assays (depositor defined):AID1777, AID1778, AID1785, AID1786, AID1966, AID2133, AID2136, AID2285, AID2495]; type: functional
# [18] = target: T4, Kappa-type opioid receptor; assay: SAR analysis of Antagonists of the Kappa Opioid Receptor (KOR) using an Image-Based Assay - Set 3. [Related pubchem assays (depositor defined):AID1777, AID1785]; type: functional
# [19] = target: Mu-type opioid receptor (Homo sapiens, UniProt P35372); assay: SAR Analysis of Antagonists of the MOR Receptor using an Image-Based Assay - Set 3. [Related pubchem assays (depositor defined):AID1777, AID1785, AID1786, AID1966, AID2133, AID2136, AID2284, AID2285, AID2420]; type: functional
# [20] = target: Wee1-like protein kinase (Homo sapiens, UniProt P30291); assay: G2/M cell cycle arrest in HeLa, late-stage follow-up, mechanism study for Wee1 degradation inhibitor project, FACS, panel member Wee1 Degradation (AID 2088)
# [21] = target: G2/mitotic-specific cyclin-B1 (Homo sapiens, UniProt P14635); assay: G2/M cell cycle arrest in HeLa, late-stage follow-up, mechanism study for Wee1 degradation inhibitor project, FACS, panel member Cyclin B Degradation (AID 2088)
# [22] = target: Coagulation factor XII (Homo sapiens, UniProt P00748); assay: Factor XIIa Dose Response Confirmation from Single Well HTS. [Related pubchem assays (depositor defined):AID701]; type: functional
# [23] = target: Eukaryotic translation initiation factor 4E (Mus musculus, UniProt P63073); assay: eIF4E–eIF4G protein interaction inhibitors, dose response, biochemical, TR-FRET (AID 855); type: functional;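 also: potency for disrupting eIF4E binding to eIF4GI seen as loss of FRET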
# [24] = target: T5, Neuropeptides B/W receptor type 1 (Homo sapiens, UniProt P48145); assay: GPR7 antagonist potency, late-stage follow-up, cell-based, fluorescence, dose response (AID 463251); type: functional
# T5 sequence (P48145 whole entry): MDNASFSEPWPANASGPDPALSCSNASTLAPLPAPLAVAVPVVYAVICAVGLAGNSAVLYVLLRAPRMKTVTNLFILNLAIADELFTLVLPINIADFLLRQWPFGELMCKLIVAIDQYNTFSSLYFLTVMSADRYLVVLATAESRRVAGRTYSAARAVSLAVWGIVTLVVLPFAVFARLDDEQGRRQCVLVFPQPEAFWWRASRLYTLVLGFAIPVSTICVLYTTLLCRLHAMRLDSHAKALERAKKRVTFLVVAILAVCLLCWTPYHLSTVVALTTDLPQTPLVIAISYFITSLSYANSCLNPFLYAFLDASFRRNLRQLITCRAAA
# [25] = target: Melanin-concentrating hormone receptor 1 (Homo sapiens, UniProt Q99705); assay: Late-stage fluorescence-based counterscreen for antagonists of the G-protein coupled receptor 7 (GPR7): cell-based dose response assay to identify antagonists of the melanin-concentrating hormone receptor 1 (MCHR1). [Related pubchem assays (depositor defined):AID1861, AID1880, AID1952, AID2148, AID2251, AID2257, AID485339]; type: functional;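 also: stimulated with 30 nM MCH peptide agonist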
# [26] = target: CAAX prenyl protease 2 (Saccharomyces cerevisiae S288c, UniProt Q03530); type: biochemical
# [27] = growth suppression of PTEN-null colon cells, dose response, cell-based, HCT116 PTEN knockout (AID 1047); type: functional;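 also: HCT116 colon tumor cells with PTEN knocked out; cells exposed to compound for 60 hours before readout; potency for loss of cell viability measured by luminescence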
# [28] = system: Vero; assay: West Nile virus antiviral activity, cell-based, CPE readout (AID 1621); type: functional; details: Chlorocebus sabaeus
# [29] = target: T4, Kappa-type opioid receptor; assay: SAR analysis of small molecule antagonists of the kappa opioid receptor via a luminescent beta-arrestin assay - Set 4. [Related pubchem assays (depositor defined):AID1777, AID1778, AID1785, AID1786, AID1966, AID2133, AID2136, AID2285]; type: functional
# [30] = target: T4, Kappa-type opioid receptor; assay: SAR analysis of Antagonists of the Kappa Opioid Receptor (KOR) using an Image-Based Assay - Set 4. [Related pubchem assays (depositor defined):AID1777, AID1785]; type: functional
# [31] = HepG2 cell cytotoxicity, dose response, cytotoxicity control for non-replicating M. tuberculosis project (AID 489018); type: functional; details: Mycobacterium tuberculosis
# [32] = THP-1 cell cytotoxicity, dose response, cytotoxicity control for non-replicating M. tuberculosis project (AID 489025); type: functional
# [33] = target: Trypsin (Sus scrofa, UniProt P00761); assay: porcine trypsin inhibitors, dose response, selectivity assay for Rce1 protease inhibitor project, biochemical, quenched peptide fluorescence, cherry-pick (AID 488789)
# [34] = target: T6, DNA repair and recombination protein RAD54-like (Homo sapiens, UniProt Q92698); assay: inhibitors of human RAD54 branch migration, confirmation, biochemical, fluorescence, cherry-picked samples, dose series (AID 651657); type: functional
# T6 sequence (Q92698 whole entry): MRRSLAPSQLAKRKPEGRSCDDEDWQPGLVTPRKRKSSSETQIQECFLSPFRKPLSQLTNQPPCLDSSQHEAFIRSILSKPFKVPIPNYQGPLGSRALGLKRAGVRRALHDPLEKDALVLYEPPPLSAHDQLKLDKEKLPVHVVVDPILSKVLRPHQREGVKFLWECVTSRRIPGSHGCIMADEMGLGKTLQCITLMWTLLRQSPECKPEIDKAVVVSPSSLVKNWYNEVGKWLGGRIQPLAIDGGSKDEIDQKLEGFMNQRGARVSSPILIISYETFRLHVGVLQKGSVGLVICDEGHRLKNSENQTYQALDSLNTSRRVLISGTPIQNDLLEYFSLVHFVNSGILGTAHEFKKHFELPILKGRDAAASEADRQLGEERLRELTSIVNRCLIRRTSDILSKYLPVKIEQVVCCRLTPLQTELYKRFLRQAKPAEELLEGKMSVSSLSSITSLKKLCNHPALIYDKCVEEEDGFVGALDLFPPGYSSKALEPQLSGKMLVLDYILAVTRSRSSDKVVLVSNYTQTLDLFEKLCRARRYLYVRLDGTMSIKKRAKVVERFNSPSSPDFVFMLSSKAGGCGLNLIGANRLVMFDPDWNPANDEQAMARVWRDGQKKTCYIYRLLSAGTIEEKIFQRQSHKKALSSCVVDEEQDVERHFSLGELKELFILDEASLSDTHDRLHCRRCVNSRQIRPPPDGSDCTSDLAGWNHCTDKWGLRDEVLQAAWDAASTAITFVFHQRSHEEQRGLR
# T4 sequence (P41145 whole entry): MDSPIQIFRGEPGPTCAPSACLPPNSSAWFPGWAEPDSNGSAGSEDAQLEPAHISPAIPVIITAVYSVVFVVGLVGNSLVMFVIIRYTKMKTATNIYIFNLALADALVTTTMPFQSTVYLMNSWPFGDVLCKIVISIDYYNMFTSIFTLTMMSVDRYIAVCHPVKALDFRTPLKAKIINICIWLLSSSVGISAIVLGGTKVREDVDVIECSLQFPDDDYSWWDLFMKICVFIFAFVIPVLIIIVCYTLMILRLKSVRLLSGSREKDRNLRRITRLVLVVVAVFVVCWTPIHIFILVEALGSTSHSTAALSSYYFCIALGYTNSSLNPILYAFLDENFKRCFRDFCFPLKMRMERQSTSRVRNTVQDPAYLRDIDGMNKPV
# Chain of Mu-type opioid receptor (P35372 whole entry): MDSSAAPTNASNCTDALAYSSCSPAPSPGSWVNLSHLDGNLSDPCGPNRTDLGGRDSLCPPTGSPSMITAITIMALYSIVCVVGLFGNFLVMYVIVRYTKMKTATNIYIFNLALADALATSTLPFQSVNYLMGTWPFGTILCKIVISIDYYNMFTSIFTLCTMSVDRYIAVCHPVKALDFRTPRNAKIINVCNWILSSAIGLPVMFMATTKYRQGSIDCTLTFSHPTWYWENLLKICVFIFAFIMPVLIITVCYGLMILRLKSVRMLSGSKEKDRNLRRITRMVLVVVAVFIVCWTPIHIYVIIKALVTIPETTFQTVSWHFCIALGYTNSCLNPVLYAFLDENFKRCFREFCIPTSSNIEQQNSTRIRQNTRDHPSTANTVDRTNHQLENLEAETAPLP
# Chain of Delta-type opioid receptor (P41143 whole entry): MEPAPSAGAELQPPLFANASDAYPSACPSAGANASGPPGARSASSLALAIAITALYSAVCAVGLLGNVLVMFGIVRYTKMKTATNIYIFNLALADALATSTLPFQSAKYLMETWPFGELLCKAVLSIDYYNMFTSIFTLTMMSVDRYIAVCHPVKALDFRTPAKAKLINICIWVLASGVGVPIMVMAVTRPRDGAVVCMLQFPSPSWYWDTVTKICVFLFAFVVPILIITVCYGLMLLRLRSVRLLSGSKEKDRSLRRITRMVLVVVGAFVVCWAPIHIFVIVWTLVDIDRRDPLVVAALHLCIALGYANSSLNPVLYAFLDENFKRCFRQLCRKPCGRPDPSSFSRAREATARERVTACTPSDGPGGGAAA
# T1 sequence (Q9UBE0 whole entry): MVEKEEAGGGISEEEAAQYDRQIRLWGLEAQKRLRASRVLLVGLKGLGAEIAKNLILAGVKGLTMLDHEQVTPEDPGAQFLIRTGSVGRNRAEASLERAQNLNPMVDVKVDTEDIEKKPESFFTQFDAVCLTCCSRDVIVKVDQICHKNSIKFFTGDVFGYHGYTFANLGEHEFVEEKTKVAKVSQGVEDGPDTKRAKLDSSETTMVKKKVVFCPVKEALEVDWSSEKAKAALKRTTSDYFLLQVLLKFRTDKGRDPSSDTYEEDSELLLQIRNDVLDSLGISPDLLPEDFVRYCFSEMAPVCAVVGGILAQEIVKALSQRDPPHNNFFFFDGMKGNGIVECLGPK
# T1 sequence (Q9UBT2 whole entry): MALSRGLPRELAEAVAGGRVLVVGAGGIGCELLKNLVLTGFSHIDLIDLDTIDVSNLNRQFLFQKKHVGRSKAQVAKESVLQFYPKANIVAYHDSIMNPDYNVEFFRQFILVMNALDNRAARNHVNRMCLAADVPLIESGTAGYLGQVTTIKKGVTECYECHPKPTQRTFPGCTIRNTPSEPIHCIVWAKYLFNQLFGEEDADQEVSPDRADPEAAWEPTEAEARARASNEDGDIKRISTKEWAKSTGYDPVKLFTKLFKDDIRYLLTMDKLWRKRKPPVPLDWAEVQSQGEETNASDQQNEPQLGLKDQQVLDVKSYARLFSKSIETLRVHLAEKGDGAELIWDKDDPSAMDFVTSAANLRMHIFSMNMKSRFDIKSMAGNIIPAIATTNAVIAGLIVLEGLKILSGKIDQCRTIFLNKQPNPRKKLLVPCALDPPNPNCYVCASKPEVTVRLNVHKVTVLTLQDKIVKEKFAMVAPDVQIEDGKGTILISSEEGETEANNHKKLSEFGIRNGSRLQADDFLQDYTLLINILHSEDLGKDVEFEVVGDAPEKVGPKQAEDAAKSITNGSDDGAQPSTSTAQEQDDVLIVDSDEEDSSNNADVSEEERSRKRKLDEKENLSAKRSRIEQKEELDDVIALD
# Chain of Perilipin-1/ABHD5 (Q8WTS1 whole entry, the tested form may be a part): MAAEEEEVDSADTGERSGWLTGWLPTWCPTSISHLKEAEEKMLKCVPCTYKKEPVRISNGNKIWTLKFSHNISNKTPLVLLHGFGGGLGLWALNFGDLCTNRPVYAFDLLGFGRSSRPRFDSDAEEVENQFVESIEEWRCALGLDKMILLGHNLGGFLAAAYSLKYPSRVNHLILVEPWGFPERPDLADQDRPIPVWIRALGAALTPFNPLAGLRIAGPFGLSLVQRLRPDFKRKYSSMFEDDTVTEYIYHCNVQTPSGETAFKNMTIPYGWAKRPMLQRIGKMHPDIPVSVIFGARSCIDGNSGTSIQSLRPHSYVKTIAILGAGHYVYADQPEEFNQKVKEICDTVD
# Chain of Perilipin-1/ABHD5 (O60240 whole entry, the tested form may be a part): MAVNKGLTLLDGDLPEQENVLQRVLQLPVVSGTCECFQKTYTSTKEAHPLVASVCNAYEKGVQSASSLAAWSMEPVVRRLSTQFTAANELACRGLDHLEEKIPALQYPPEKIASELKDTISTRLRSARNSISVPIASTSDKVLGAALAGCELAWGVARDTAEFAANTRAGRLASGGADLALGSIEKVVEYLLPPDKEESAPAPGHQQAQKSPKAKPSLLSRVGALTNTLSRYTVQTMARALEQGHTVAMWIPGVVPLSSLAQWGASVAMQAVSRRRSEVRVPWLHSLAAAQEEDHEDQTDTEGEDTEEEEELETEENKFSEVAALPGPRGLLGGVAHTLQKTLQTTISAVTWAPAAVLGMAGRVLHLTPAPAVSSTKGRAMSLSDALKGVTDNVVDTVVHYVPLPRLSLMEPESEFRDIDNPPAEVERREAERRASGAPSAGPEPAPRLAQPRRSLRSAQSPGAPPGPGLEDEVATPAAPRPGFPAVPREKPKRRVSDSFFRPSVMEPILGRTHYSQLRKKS
# Chain of Eukaryotic translation initiation factor 4E (P63073 whole entry): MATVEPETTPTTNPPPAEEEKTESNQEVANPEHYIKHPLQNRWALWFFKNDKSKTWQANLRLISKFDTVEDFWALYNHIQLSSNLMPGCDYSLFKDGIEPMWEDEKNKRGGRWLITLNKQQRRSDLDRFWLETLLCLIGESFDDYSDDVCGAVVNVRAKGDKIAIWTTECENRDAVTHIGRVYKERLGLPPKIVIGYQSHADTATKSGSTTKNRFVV
# Chain of CAAX prenyl protease 2 (Q03530 whole entry): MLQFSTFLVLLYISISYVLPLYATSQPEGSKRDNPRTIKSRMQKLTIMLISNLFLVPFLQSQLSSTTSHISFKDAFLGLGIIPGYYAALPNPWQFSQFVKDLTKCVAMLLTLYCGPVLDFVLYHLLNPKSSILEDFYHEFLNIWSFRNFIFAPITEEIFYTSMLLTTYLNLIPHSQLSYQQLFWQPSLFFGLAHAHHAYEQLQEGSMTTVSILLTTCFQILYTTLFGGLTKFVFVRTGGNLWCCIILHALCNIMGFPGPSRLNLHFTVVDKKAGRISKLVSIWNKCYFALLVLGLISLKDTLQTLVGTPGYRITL
# Chain of 1-acylglycerol-3-phosphate O-acyltransferase ABHD5/Perilipin-5 (Q00G26 whole entry, the tested form may be a part): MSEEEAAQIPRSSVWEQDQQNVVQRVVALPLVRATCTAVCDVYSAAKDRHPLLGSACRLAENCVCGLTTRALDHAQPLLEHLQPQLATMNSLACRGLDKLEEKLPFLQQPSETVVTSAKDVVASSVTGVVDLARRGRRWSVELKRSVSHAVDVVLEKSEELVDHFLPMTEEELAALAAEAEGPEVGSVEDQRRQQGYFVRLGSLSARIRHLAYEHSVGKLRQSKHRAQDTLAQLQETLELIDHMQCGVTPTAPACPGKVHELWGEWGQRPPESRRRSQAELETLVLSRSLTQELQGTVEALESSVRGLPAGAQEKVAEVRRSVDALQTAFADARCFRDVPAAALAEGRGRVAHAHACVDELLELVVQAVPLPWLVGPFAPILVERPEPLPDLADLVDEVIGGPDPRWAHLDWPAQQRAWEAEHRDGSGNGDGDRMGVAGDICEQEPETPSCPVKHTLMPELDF
# Chain of 1-acylglycerol-3-phosphate O-acyltransferase ABHD5/Perilipin-5 (Q8WTS1 whole entry, the tested form may be a part): as the sequence (Q8WTS1 whole entry, the tested form may be a part) above
# Chain of Trypsin (P00761 whole entry): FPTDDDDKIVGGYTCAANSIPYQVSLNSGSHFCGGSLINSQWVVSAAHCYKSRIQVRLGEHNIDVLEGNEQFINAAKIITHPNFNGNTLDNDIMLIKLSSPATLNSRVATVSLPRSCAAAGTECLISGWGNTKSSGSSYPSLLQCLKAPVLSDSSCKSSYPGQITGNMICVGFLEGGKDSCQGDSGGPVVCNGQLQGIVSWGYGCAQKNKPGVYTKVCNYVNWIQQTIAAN
# Chain of G2/mitotic-specific cyclin-B1 (P14635 whole entry): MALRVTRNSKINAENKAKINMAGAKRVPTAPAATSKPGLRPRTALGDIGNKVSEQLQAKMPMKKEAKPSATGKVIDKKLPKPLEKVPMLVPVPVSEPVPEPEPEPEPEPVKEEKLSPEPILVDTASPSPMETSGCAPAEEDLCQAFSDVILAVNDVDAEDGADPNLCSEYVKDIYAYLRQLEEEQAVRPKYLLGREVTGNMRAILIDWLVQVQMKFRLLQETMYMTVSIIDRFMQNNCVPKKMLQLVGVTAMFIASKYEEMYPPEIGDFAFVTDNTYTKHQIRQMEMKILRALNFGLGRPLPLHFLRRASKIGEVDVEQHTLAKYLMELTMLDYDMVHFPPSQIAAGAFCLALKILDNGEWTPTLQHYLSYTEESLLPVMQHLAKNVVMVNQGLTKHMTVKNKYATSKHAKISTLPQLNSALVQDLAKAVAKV
# Chain of Dual specificity protein phosphatase 3 (P51452 whole entry): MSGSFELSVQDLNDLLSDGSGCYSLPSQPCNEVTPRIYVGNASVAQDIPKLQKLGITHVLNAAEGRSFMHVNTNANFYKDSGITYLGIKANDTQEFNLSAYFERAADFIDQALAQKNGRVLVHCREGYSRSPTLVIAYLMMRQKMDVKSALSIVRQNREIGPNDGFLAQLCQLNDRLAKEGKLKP
compound,measurement,setting,value
O=C(CN1C(=O)/C(=C/c2cccc(Br)c2)SC1=S)Nc1cccnc1,IC50,[1],20.8 µM (inactive)
same,IC50,[2],16 µM (inactive)
Cc1ccc(Nc2ccc(-c3ccncc3)s2)c(Br)c1,EC50,[3],3.92 µM (active)
COc1ccc(OC)c(/C=C2\SC(NNC(=O)c3ccc4ccccc4c3)=NC2=O)c1,AC50,[4],2.36 µM (active)
same,IC50,[5],18.1 µM (active)
same,IC50,[6],2.14 µM (active)
O=C(COc1ccc(/C=N/NC(=O)c2cc3ccccc3o2)cc1Cl)Nc1ccccc1,EC50,[7],191 µM (active)
same,EC50,[8],23.4 µM (active)
same,EC50,[9],19.2 µM (active)
same,EC50,[10],2 µM (active)
same,IC50,[11],2.65 µM (active)
O=C(O)c1ccc(C=c2sc(=CC(=O)c3ccco3)[nH]c2=O)cc1,IC50,[12],4.09 µM (active)
same,IC50,[13],> 100 µM (inactive)
same,IC50,[14],16.2 µM (active)
O=C(CSCCO)Nc1ccc(C23C[C@H]4C[C@@H](C2)C[C@@H](C3)C4)cc1,IC50,[15],> 80 µM (inactive)
CCc1ccc(S(=O)(=O)NCc2ccc(C(=O)NCCN3Cc4ccccc4C3)cc2)cc1,IC50,[16],> 32 µM (inactive)
same,IC50,[17],> 20 µM (inactive)
same,IC50,[18],> 32 µM (inactive)
same,IC50,[19],> 32 µM (inactive)
Cc1cc(Br)ccc1NC(=O)CCCOc1cc(=O)n(C)c2ccccc12,EC50,[20],> 49.7 µM (inactive)
same,EC50,[21],> 49.7 µM (inactive)
Cc1ccccc1C(=O)/N=c1\sccn1C,IC50,[22],> 50 µM (inactive)
O=C(/C=N/O)Nc1ccc(F)cc1,IC50,[23],> 64 µM (inactive)
CCOc1ccc(CCOc2c(Cl)cnn(-c3ccc(C)cc3)c2=O)cc1OCC,IC50,[24],5.5 µM (active)
same,IC50,[25],14.5 µM (inactive)
COc1ccc(C2c3c(ncn(CCN4CCOCC4)c3=N)Oc3ccc4ccccc4c32)cc1 (configuration not stated),EC50,[7],11.1 µM (active)
same,AC50,[26],15.7 µM (active)
same,EC50,[27],12.7 µM (active)
same,IC50,[28],18.7 µM (active)
CC(C)Cc1ccc(S(=O)(=O)NCc2ccc(C(=O)NCCN(Cc3ccccc3)C(C)C)cc2)cc1,IC50,[16],> 32 µM (inactive)
same,IC50,[29],4.02 µM (active)
same,IC50,[19],> 32 µM (inactive)
same,IC50,[30],0.595 µM (active)
Clc1ccc(SCCCCN2CCNCC2)cc1,CC50,[31],> 20 µM (active)
same,CC50,[32],> 40 µM (active)
COc1ccc2c(c1)c1ncn(CCN3CCCC3)c(=O)c1n2C,AC50,[33],19.7 µM (active)
same,AC50,[34],23.3 µM (active)
